# Test results taken from patent publication US20190142046A1, “FUNCTIONALLY REINFORCED DESALTED NUTRITIONAL COMPOSITIONS FROM HALOPHYTES AND PREPARATION METHOD THEREOF” (PHYTO CORPORATION, priority 2016, published 2019).
# Counter-ions that a name gives are not always drawn.
# Tests used:
# Assay type in all cases: cell-based
# SREBP-1 = test: Real-Time RT-PCR, SREBP-1 gene expression in 3T3-L1; settings: 1, 2, 5 and 10 μM; largest decrease at 10 μM
# Experimental: (§1) Real-Time RT-PCR was performed to investigate the effect of trans-ferulic acid (TFA) on transcription factors involved in lipid metabolism at mRNA expression levels. Total RNA was isolated from a control group and each test group treated with various concentrations of TFA (easy-Blue, iNtRon, INC, Daejeon, Korea) and diluted at the same concentration, and cDNA synthesis was carried out using the diluted RNA samples (cDNA reverse transcription kits, Applied Biosystems, CA, USA).
# (§2) In brief, after 3T3-L1 preadipocytes were treated with TFA at various concentrations, namely 1, 2, 5 and 10 μM), Real-time qRT-PCR was performed using the primers of Table 9 (CFX96 real-time PCR detection system, Bio-Rad Laboratories, Hercules, Calif., USA). The PCR conditions included denaturation at […] for 3 min, 45 cycles of 95° C. for 5 sec and 60° C. for 20 sec, and heating up to 95° C. (by increasing the temperature at a rate of 0.2° C./15 sec) to terminate the reaction. […] Therefore, the Desalted Salicornia Powder (DSP) containing TFA as an effective component may effectively reduce body fat by inhibiting adipocyte differentiation and lipid droplet formation and may eventually lead to a decrease in body weight, and thus has the potential to be applied as a functional food and feedstuff for preventing and/or treating obesity.
# C/EBPα = test: Real-Time RT-PCR, C/EBPα gene expression in 3T3-L1; settings: 5 μM and 10 μM
# Experimental: as §1, §2
# PPARγ = test: Real-Time RT-PCR, PPARγ gene expression in 3T3-L1; settings: 10 μM
# Experimental: as §1, §2
# FAS = test: Real-Time RT-PCR, FAS gene expression in 3T3-L1; settings: 1, 2, 5 and 10 μM; largest decrease at 10 μM
# Experimental: as §1, §2
# 3T3-L1 cells [1] = test: Oil Red O staining of lipid droplets during adipocyte differentiation
# Experimental: The major marker component of the desalted Salicornia powder, trans-ferulic acid (TFA), was evaluated for its inhibitory effect on adipocyte differentiation using 3T3-L1 cells as an in-vitro model of adipocyte differentiation. 3T3-L1 preadipocytes were checked for contamination every eight hours to improve confidence in the experiment. Primary preadipocytes were propagated, and were then induced to differentiate with a culture medium containing 3-isobutyl-1-methylxanthine (IBMX), dexamethasone and insulin. During the differentiation induction, the medium was changed twice every three days. After being induced to differentiate, 3T3-L1 cells were subjected to Oil Red O staining to detect the presence of intracellular lipid droplets. First, the medium was discarded from each well, and cells were fixed with 4% paraformaldehyde. Subsequently, cells were washed with 100% 1,2-propanediol dehydration solution for 5 min and then stained with Oil Red O stain solution. After Oil Red O staining, 85% 1,2-propanediol stain differential solution was added to each well for cell washing. Finally, distilled water was added to each well to prevent stained cells from drying, and cells were observed under a microscope to determine lipid accumulation.
# 3T3-L1 cells [2] = test: Intracellular triglyceride formation during adipocyte differentiation
# Experimental: The major marker component of the desalted Salicornia powder, trans-ferulic acid (TFA), was evaluated for its inhibitory effect on adipocyte differentiation using 3T3-L1 cells as an in-vitro model of adipocyte differentiation. 3T3-L1 preadipocytes were checked for contamination every eight hours to improve confidence in the experiment. Primary preadipocytes were propagated, and were then induced to differentiate with a culture medium containing 3-isobutyl-1-methylxanthine (IBMX), dexamethasone and insulin. During the differentiation induction, the medium was changed twice every three days. In addition, as a marker for adipocyte differentiation, intracellular triglyceride formation was investigated.
smiles,measurement,setting,value
"COc1cc(/C=C/C(=O)O)ccc1O [TFA, trans-ferulic acid]",SREBP-1 gene expression compared to differentiation-induced control (MDI),SREBP-1,reduced in a dosage-dependent manner
same,C/EBPα gene expression compared to differentiation-induced control (MDI),C/EBPα,significantly reduced in a dosage-dependent manner
same,PPARγ gene expression,PPARγ,significantly reduced
same,FAS gene expression compared to differentiation-induced control (MDI),FAS,reduced in a dosage-dependent manner
same,inhibition of lipid droplet formation compared to differentiation-induced control (MDI),3T3-L1 cells [1]; 5 μM and 10 μM,remarkably significant inhibition
same,adipocyte differentiation and lipid droplet formation (Oil Red O),3T3-L1 cells [1]; within the used concentrations,inhibit adipocyte differentiation and lipid droplet formation in a dosage-dependent manner
same,triglyceride formation compared to differentiation-induced control (MDI),3T3-L1 cells [2]; 5 μM and 10 μM,remarkably significantly inhibited
same,intracellular triglyceride formation,"3T3-L1 cells [2]; 1, 2, 5 and 10 μM",reduced intracellular triglyceride formation in a dosage-dependent manner
